Laboratory results as given in US12441730B2, “PRMT5 inhibitors” (Merck Sharp & Dohme LLC, priority 2019, dated 2025).
Read-outs that look alike come from different tables or passages of the source.

What was measured:
[1] = target: T1, Full-length (FL)-PRMT5-MEP50 enzyme complex (Homo sapiens, UniProt O14744); test: PRMT5-MEP50 Enzyme Methylation Assay (Version A); format: biochemical
T1 construct: Full-length (FL)-PRMT5-MEP50 enzyme complex (recombinant proteins from baculovirus-transfected Sf21 cells: FL-PRMT5; MW=73837 kDa and FL-MEP50; MW=38614); made in house; host or cells: baculovirus-transfected Sf21 cells
Method: PRMT5-MEP50 Enzyme Methylation Assay (Version A)
PRMT5-MEP50 biochemical assay is a direct measurement of the methylation activity of the enzyme complex on a short peptide substrate derived from the N-terminus of H4 histone. Methylation experiment was performed with recombinant PRMT5-MEP50 protein complex. The assessment of inhibitory effect of small molecules was measured by the effectiveness of the compounds to inhibit this reaction (EC50).
In this assay, the potency (EC50) of each compound was determined from a twenty-point (1:2 serial dilution; top compound concentration of 100000 nM) titration curve using the following outlined procedure. To each well of a white ProxiPlus 384 well-plate, 100 nL of compound (1% DMSO in final assay volume of 10 μL) was dispensed, followed by the addition of 8 μL of 1× assay buffer (50 mM Bicine pH 8.0, 1 mM DTT, 0.004% Tween20, 0.01% BSA) containing 1.25 nM of Full-length (FL)-PRMT5-MEP50 enzyme complex (recombinant proteins from baculovirus-transfected Sf21 cells: FL-PRMT5; MW=[…] and FL-MEP50; MW=38614) and 1 μL of 150 μM S-(5′-Adenosyl)-L-Methionine Chloride (SAM). A plate were sealed and placed in a 37° C. humidified chamber for a 60 minutes pre-incubation with compound. Subsequently, each reaction was initiated by the addition of 1 μL 1× assay buffer containing 750 nM biotinylated H4R3(Me1) peptide. The final reaction in each well of 10 μL consists of 1.0 nM PRMT5-MEP50, 75 nM biotinylated-peptide, and 15 μM SAM. Methylation reactions were allowed to proceed for 150 minutes in a sealed plate at 37° C. Reactions were immediately quenched by the addition of 1 μL of 5% formic acid. A plate was then frozen and shipped to SAMDI™ Tech Inc. to determine the percent conversion from H4R3(Me1) to H4R3(Me2). Dose-response curves were generated by plotting percent effect (% product conversion; Y-axis) vs. Log 10 compound concentrations (X-axis). EC50 values were determined by non-linear regression according to models for either sigmoidal (4 parameters) or biphasic (7 parameters) dose-response curves.

[2] = system: symmetric dimethylation of arginine (SDMA) of PRMT5 substrates in MCF-7 cells; test: PRMT5 Cell Target Engagement (TE) Assay; format: cell-based; settings: 3 days treatment, SDMA high content imaging
Source text: PRMT5 Cell Target Engagement (TE) Assay
The PRMT5 TE assay is a biomarker assay for identifying compounds that inhibit symmetric dimethylation of arginine (SDMA) of PRMT5 substrates. The following substrates have been reported for PRMT5: histone H2A and H4 R3, Histone H3 R2, Histone H3 R8, spliceosome Sm proteins, ribosomal protein RPS10, p53, FEN1, nucleoplasmin, nucleolin, EGFR and EBNA. The assay focuses on detecting symmetrically dimethylated nuclear proteins using high content imaging technology. Detection of the expression of symmetrically dimethylated nuclear proteins is through a mixture of primary rabbit monoclonal antibodies to SDMA (CST 13222), which in turn recognized by an Alexafluor 488 dye-conjugated anti-rabbit IgG secondary antibody. The IN Cell Analyzer 2200 or Opera-Phenix measures nuclear Alexafluor 488 fluorescent dye intensity that is directly related to the level of expression of symmetrically dimethylated nuclear proteins at the single cell level. Nuclear AF488 dye intensities are compared to the mean value for DMSO treated cells (MIN) to report percent of inhibition for each compound-treated well.
In this assay, the cell potency (EC50) of each compound was determined from a ten point (1:3 serial dilution; top compound concentration of 10000 nM) titration curve using the following outlined procedure. Each well of a BD falcon collagen coated black/clear bottom 384-well plate was seeded with 4000 MCF-7 cells in 30 μl media and allowed to attach for 5 h. Media is ATCC-formulated Eagle's Minimum Essential Medium, Catalog No. 30-2003. To make the complete growth medium, the following components were added to the base medium: 0.01 mg/mL human recombinant insulin; fetal bovine serum to a final concentration of 10%. Additional 30 μl of media containing 2× compounds were added to each well. Cells were treated for 3 days in 37° C. CO2 incubator. On day 3, cells were fixed with Cytofix, permeabilized with 0.4% Triton-X-100/Cytofix, and washed with D-PBS without Ca/Mg. Cells were blocked with Licor Odessey blocking reagent for 1 h at room temperature, followed by incubation with anti-SDMA (1:1000) antibody at 4° C. overnight. 1° antibody was removed, followed by three washings with DPBS without Ca/Mg and 0.05% Tween20. Hoechst (5 μg/mL), Cell Mask deep stain (1:2000) and Alexa488-conjugated goat anti-rabbit IgG (2 μg/mL) was added for 1 h at room temperature. A final washing step (three washes) was performed before sealing plate for imaging on In Cell Analyzer 2200 or Opera-Phenix. Images from analyzer were uploaded to Columbus (at WP or BOS) for image analysis. IC50 values were determined by 4 parameters robust fit of percent fluorescence units vs. (Log10) compound concentrations.

[3] = second value of 7 parameter biphasic fit, read-out: Enzyme Methylation Assay Version A (EC50 2)
[4] = single EC50 = 4 parameter single site sigmoidal fit, EC50 1 = first value of 7 parameter biphasic fit, read-out: Enzyme Methylation Assay Version A (EC50 or EC50 1)

T1 sequence (O14744 whole entry): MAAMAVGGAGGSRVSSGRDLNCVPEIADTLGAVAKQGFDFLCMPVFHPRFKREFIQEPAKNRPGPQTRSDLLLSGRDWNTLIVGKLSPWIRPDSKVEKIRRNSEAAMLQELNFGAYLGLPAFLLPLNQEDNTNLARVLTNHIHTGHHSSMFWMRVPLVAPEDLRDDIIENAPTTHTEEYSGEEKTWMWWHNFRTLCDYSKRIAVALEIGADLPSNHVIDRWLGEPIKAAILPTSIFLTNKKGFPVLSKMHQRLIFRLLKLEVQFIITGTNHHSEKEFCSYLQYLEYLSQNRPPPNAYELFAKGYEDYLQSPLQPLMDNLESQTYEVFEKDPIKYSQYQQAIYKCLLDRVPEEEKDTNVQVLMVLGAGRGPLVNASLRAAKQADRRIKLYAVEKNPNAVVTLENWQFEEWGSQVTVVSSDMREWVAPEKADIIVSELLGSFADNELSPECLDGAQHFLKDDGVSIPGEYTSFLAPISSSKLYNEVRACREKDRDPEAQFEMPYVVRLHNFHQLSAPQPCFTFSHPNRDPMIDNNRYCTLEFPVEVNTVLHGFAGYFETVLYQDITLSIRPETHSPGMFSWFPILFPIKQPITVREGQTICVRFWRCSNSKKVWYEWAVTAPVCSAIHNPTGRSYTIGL
T1 sequence (Q9BQA1 whole entry partner): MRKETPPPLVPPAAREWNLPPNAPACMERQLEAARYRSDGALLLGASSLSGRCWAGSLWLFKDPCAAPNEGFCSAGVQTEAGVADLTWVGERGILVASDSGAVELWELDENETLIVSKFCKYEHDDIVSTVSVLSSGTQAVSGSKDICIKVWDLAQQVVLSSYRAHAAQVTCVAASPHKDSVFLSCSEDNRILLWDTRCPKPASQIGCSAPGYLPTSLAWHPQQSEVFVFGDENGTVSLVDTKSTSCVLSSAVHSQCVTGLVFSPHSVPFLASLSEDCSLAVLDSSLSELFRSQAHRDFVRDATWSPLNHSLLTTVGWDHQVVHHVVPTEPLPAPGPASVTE

| EC50 [1, 3] [nM] | EC50 [1, 4] [nM] | EC50 [2] [nM] | EC50 ([2]; Homo sapiens, MCF7, 72 h) [nM] | Structure (SMILES) |
| --- | --- | --- | --- | --- |
| 439 | 0.674 | 16.8 | – | COC(C)c1ccc2nc(C(=O)N3CC[C@]4(Cc5ccccc5CN4)[C@H](O)C3)cn2c1 (single isomer, unassigned) [Example 22, ((3R,3’R)-3′-hydroxy-1,4-dihydro-2H-spiro[isoquinoline-3,4′-piperidin]-1′-yl)(6-((S or R)-1-methoxyethyl)imidazo[1,2-a]pyridin-2-yl)methanone] |
| 851 | 1.8 | 46.4 | – | COC(C)c1ccc2nc(C(=O)N3CC[C@]4(Cc5ccccc5CN4)[C@H](O)C3)cn2c1 (single isomer, unassigned) [Example 23, ((3R,3’R)-3′-hydroxy-1,4-dihydro-2H-spiro[isoquinoline-3,4′-piperidin]-1-yl)(6-((R or S)-1-methoxyethyl)imidazo[1,2-a]pyridin-2-yl)methanone] |
| 99.4 | 0.584 | – | 3.62 | O=C(c1cn2cc(Br)cc(C(O)C(F)(F)F)c2n1)N1CC[C@]2(Cc3ccccc3CN2)[C@H](O)C1 (single isomer, unassigned) [Example 30, (6-bromo-8-((R or S)-2,2,2-trifluoro-1-hydroxyethyl)imidazo[1,2-a]pyridin-2-yl)((3R,3’R)-3′-hydroxy-1,4-dihydro-2H-spiro[isoquinoline-3,4′-piperidin]-1′-yl)methanone] |
| 72.4 | 0.215 | 4.49 | – | O=C(c1cn2cc(Br)cc(C(O)C(F)(F)F)c2n1)N1CC[C@]2(Cc3ccccc3CN2)[C@H](O)C1 (single isomer, unassigned) [Example 31, (6-bromo-8-((S or R)-2,2,2-trifluoro-1-hydroxyethyl)imidazo[1,2-a]pyridin-2-yl)((3R,3’R)-3′-hydroxy-1,4-dihydro-2H-spiro[isoquinoline-3,4′-piperidin]-1′-yl)methanone] |
| 282 | 0.844 | – | 5.15 | CC(O)c1cc(Br)cn2cc(C(=O)N3CC[C@]4(Cc5ccccc5CN4)[C@H](O)C3)nc12 (single isomer, unassigned) [Example 32, (6-bromo-8-((R or S)-1-hydroxyethyl)imidazo[1,2-a]pyridin-2-yl)((3R,3’R)-3′-hydroxy-1,4-dihydro-2H-spiro[isoquinoline-3,4′-piperidin]-1′-yl)methanone] |
| 215 | 0.565 | 3.71 | – | CC(O)c1cc(Br)cn2cc(C(=O)N3CC[C@]4(Cc5ccccc5CN4)[C@H](O)C3)nc12 (single isomer, unassigned) [Example 33, (6-bromo-8-((S or R)-1-hydroxyethyl)imidazo[1,2-a]pyridin-2-yl)((3R,3’R)-3′-hydroxy-1,4-dihydro-2H-spiro[isoquinoline-3,4′-piperidin]-1′-yl)methanone] |
| 271 | 0.456 | 7.49 | – | COC(C)c1cc(Br)c2nc(C(=O)N3CC[C@]4(Cc5ccccc5CN4)[C@H](O)C3)cn2c1 (single isomer, unassigned) [Example 60] |
| 422 | 0.669 | 16.9 | – | COC(C)c1cc(Br)c2nc(C(=O)N3CC[C@]4(Cc5ccccc5CN4)[C@H](O)C3)cn2c1 (single isomer, unassigned) [Example 61] |
| – | 13.9 | 8.37 | – | CC1CC1c1cnc2nc(C(=O)N3CC[C@]4(Cc5ccccc5CN4)[C@H](O)C3)cn2c1 (single isomer, unassigned) [Example 74] |
| 112 | 1.66 | – | 27.5 | O=C(c1cn2cc(C3CC3(F)F)cnc2n1)N1CC[C@]2(Cc3ccccc3CN2)[C@H](O)C1 (single isomer, unassigned) [Example 75] |
| 73.3 | 0.983 | 4.02 | – | CC1CC1c1cnc2nc(C(=O)N3CC[C@]4(Cc5ccccc5CN4)[C@H](O)C3)cn2c1 (single isomer, unassigned) [Example 76] |
| 108 | 1.46 | 23.8 | – | O=C(c1cn2cc(C3CC3(F)F)cnc2n1)N1CC[C@]2(Cc3ccccc3CN2)[C@H](O)C1 (single isomer, unassigned) [Example 77] |
| – | 1.25 | 8.38 | – | COC(C)c1cc(C(F)F)cn2cc(C(=O)N3CC[C@]4(Cc5ccccc5CN4)[C@H](O)C3)nc12 (single isomer, unassigned) [Example 80] |
| – | 3.81 | 25 | – | COC(C)c1cc(C(F)F)cn2cc(C(=O)N3CC[C@]4(Cc5ccccc5CN4)[C@H](O)C3)nc12 (single isomer, unassigned) [Example 81] |
| – | 0.746 | 7.75 | – | N#CC1(c2cnc3nc(C(=O)N4CC[C@]5(Cc6ccccc6CN5)[C@H](O)C4)cn3c2)CC12CC2 (single isomer, unassigned) [Example 82] |
| 3160 | 3.28 | 90.8 | – | N#CC1(c2cnc3nc(C(=O)N4CC[C@]5(Cc6ccccc6CN5)[C@H](O)C4)cn3c2)CC12CC2 (single isomer, unassigned) [Example 83] |
| 316 | 0.826 | – | 19.7 | CN1CCC(Oc2nc(Br)cn3cc(C(=O)N4CC[C@]5(Cc6ccccc6CN5)[C@H](O)C4)nc23)C1=O (single isomer, unassigned) [Example 94, (R or S)-3-((6-bromo-2-((3R,3′R)-3′-hydroxy-1,4-dihydro-2H-spiro[isoquinoline-3,4′-piperidine]-1′-carbonyl)imidazo[1,2-a]pyrazin-8-yl)oxy)-1-methylpyrrolidin-2-one] |
| 468 | 1.01 | 28.7 | – | CN1CCC(Oc2nc(Br)cn3cc(C(=O)N4CC[C@]5(Cc6ccccc6CN5)[C@H](O)C4)nc23)C1=O (single isomer, unassigned) [Example 95, (R or S)-3-((6-bromo-2-((3R,3′R)-3′-hydroxy-1,4-dihydro-2H-spiro[isoquinoline-3,4′-piperidine]-1′-carbonyl)imidazo[1,2-a]pyrazin-8-yl)oxy)-1-methylpyrrolidin-2-one] |
| 104 | 0.191 | – | 6.86 | O=C(c1cn2cc(Br)nc(OC3CCOC3)c2n1)N1CC[C@]2(Cc3ccccc3CN2)[C@H](O)C1 (single isomer, unassigned) [Example 98, (6-bromo-8-(((S or R)(tetrahydrofuran-3-yl)oxy)imidazo[1,2-a]pyrazin-2-yl)((3R,3′R)-3′-hydroxy-1,4-dihydro-2H-spiro[isoquinoline-3,4′-piperidin]-1′-yl)methanone] |
